System: MV-4-11 cells
Assay: Gene expression microarray analysis (Affymetrix PrimeView) and GSEA
Format: cell-based, human
Parameters: RFU PODN (11730768_x_at) / Fold change /veh PODN (11730768_x_at) / RFU LINC00158 (11744669_a_at) / Fold change /veh LINC00158 (11744669_a_at) / RFU DUSP10 (11751237_a_at) / Fold change /veh DUSP10 (11751237_a_at) / RFU ID3 (11757404_x_at) / Fold change /veh ID3 (11757404_x_at) / RFU PLEKHG5 (11737974_s_at) / Fold change /veh PLEKHG5 (11737974_s_at) / RFU LRRC4B (11730491_at) / Fold change /veh LRRC4B (11730491_at) / RFU GIMAP4 (11747438_a_at) / Fold change /veh GIMAP4 (11747438_a_at) / RFU KRT8 (11758183_x_at) / Fold change /veh KRT8 (11758183_x_at) / RFU CNN1 (11734310_a_at) / Fold change /veh CNN1 (11734310_a_at) / RFU VPS37D (11726825_at) / Fold change /veh VPS37D (11726825_at) / RFU C10orf10 (11716522_x_at) / Fold change /veh C10orf10 (11716522_x_at) / RFU KIR2DL2 /// KIR2DL4 /// KIR2DL5A /// KIR2DL5B /// KIR2DS1 /// KIR2DS2 /// KIR2DS3 /// KIR2DS4 /// KIR3DL3 /// KIR3DL3 /// KIR3DS1 (11738374_at) / Fold change /veh KIR2DL2 /// KIR2DL4 /// KIR2DL5A /// KIR2DL5B /// KIR2DS1 /// KIR2DS2 /// KIR2DS3 /// KIR2DS4 /// KIR3DL3 /// KIR3DL3 /// KIR3DS1 (11738374_at) / RFU C1QL1 (11718748_at) / Fold change /veh C1QL1 (11718748_at) / RFU TMPRSS4 (11747572_a_at) / Fold change /veh TMPRSS4 (11747572_a_at) / RFU HAMP (11756126_x_at) / Fold change /veh HAMP (11756126_x_at) / RFU RNFT2 (11725882_a_at) / Fold change /veh RNFT2 (11725882_a_at) / RFU NR4A2 (11747474_a_at) / Fold change /veh NR4A2 (11747474_a_at) / RFU ABCC12 (11746883_a_at) / Fold change /veh ABCC12 (11746883_a_at) / RFU TMEM136 (11760407_x_at) / Fold change /veh TMEM136 (11760407_x_at) / RFU CLDN22 /// WWC2 (11732394_at) / Fold change /veh CLDN22 /// WWC2 (11732394_at) / RFU HLA-DPB1 (11760878_x_at) / Fold change /veh HLA-DPB1 (11760878_x_at) / RFU SPINT1 (11716480_a_at) / Fold change /veh SPINT1 (11716480_a_at) / RFU GAP43 (11754022_s_at) / Fold change /veh GAP43 (11754022_s_at) / RFU A4GNT (11735810_at) / Fold change /veh A4GNT (11735810_at) / RFU PRB3 (11715151_x_at) / Fold change /veh PRB3 (11715151_x_at) / RFU TUBB4B (11761932_at) / Fold change /veh TUBB4B (11761932_at) / RFU CAPN14 (11732068_a_at) / Fold change /veh CAPN14 (11732068_a_at) / RFU TMCC2 (11721928_a_at) / Fold change /veh TMCC2 (11721928_a_at) / RFU IRGQ (11745062_a_at) / Fold change /veh IRGQ (11745062_a_at) / RFU FAM174B (11720279_a_at) / Fold change /veh FAM174B (11720279_a_at) / RFU TMPRSS4 (11748680_a_at) / Fold change /veh TMPRSS4 (11748680_a_at) / RFU FAM212B (11763350_a_at) / Fold change /veh FAM212B (11763350_a_at) / RFU PLEKHG5 (11743358_a_at) / Fold change /veh PLEKHG5 (11743358_a_at) / RFU ZSCAN30 (11745921_a_at) / Fold change /veh ZSCAN30 (11745921_a_at) / RFU CMKLR1 (11741424_a_at) / Fold change /veh CMKLR1 (11741424_a_at) / RFU LOC101060620 /// MAPK8IP1 (11723275_at) / Fold change /veh LOC101060620 /// MAPK8IP1 (11723275_at) / RFU SPTSSB (11747773_x_at) / Fold change /veh SPTSSB (11747773_x_at) / RFU PRSS12 (11739890_at) / Fold change /veh PRSS12 (11739890_at) / RFU BIN1 (11741810_x_at) / Fold change /veh BIN1 (11741810_x_at) / RFU WNT11 (11732464_a_at) / Fold change /veh WNT11 (11732464_a_at) / RFU C10orf10 (11716521_a_at) / Fold change /veh C10orf10 (11716521_a_at) / RFU C5orf56 (11738089_at) / Fold change /veh C5orf56 (11738089_at) / RFU CYB561 (11721691_x_at) / Fold change /veh CYB561 (11721691_x_at) / RFU ANKRD19P (11752326_a_at) / Fold change /veh ANKRD19P (11752326_a_at) / RFU OR2T12 /// OR2T33 /// OR2T8 (11738714_s_at) / Fold change /veh OR2T12 /// OR2T33 /// OR2T8 (11738714_s_at) / RFU VCAN (11748164_a_at) / Fold change /veh VCAN (11748164_a_at) / RFU JSRP1 (11732532_at) / Fold change /veh JSRP1 (11732532_at) / RFU KRTAP10-11 (11738290_x_at) / Fold change /veh KRTAP10-11 (11738290_x_at) / RFU MYO3A (11730013_a_at) / Fold change /veh MYO3A (11730013_a_at) / RFU EBF3 (11725865_a_at) / Fold change /veh EBF3 (11725865_a_at) / RFU CAMK2N1 (11719241_x_at) / Fold change /veh CAMK2N1 (11719241_x_at) / RFU C5orf56 (11738088_a_at) / Fold change /veh C5orf56 (11738088_a_at) / RFU OLFML3 (11715873_a_at) / Fold change /veh OLFML3 (11715873_a_at) / RFU LOC100653217 /// NTM (11731650_a_at) / Fold change /veh LOC100653217 /// NTM (11731650_a_at) / RFU MAPK11 (11762145_a_at) / Fold change /veh MAPK11 (11762145_a_at) / RFU FIZ1 (11724087_x_at) / Fold change /veh FIZ1 (11724087_x_at) / RFU OASL (11726364_x_at) / Fold change /veh OASL (11726364_x_at) / RFU SOX15 (11748057_x_at) / Fold change /veh SOX15 (11748057_x_at) / RFU CD79A (11719716_a_at) / Fold change /veh CD79A (11719716_a_at) / RFU HIST1H1D (11736915_at) / Fold change /veh HIST1H1D (11736915_at) / RFU CASKIN2 (11723855_a_at) / Fold change /veh CASKIN2 (11723855_a_at) / RFU LOC730098 (11760151_x_at) / Fold change /veh LOC730098 (11760151_x_at) / RFU OR4N2 (11742367_at) / Fold change /veh OR4N2 (11742367_at) / RFU PRRT2 (11749266_a_at) / Fold change /veh PRRT2 (11749266_a_at) / RFU SNX32 (11753110_a_at) / Fold change /veh SNX32 (11753110_a_at) / RFU CDHR5 (11726645_a_at) / Fold change /veh CDHR5 (11726645_a_at) / RFU RCAN1 (11760418_a_at) / Fold change /veh RCAN1 (11760418_a_at) / RFU FAM167A (11723789_a_at) / Fold change /veh FAM167A (11723789_a_at) / RFU FAM26E (11764081_at) / Fold change /veh FAM26E (11764081_at) / RFU ISYNA1 (11749810_s_at) / Fold change /veh ISYNA1 (11749810_s_at) / RFU ACY1 (11761880_at) / Fold change /veh ACY1 (11761880_at) / RFU 11764098_at / Fold change /veh 11764098_at / RFU SAMD14 (11745864_x_at) / Fold change /veh SAMD14 (11745864_x_at) / RFU NPB (11741838_a_at) / Fold change /veh NPB (11741838_a_at) / RFU TMPRSS6 (11731388_a_at) / Fold change /veh TMPRSS6 (11731388_a_at) / RFU KRTAP10-2 (11738614_at) / Fold change /veh KRTAP10-2 (11738614_at) / RFU ARHGAP8 /// PRR5-ARHGAP8 (11727945_x_at) / Fold change /veh ARHGAP8 /// PRR5-ARHGAP8 (11727945_x_at) / RFU KRTAP5-7 /// NADSYN1 (11734609_at) / Fold change /veh KRTAP5-7 /// NADSYN1 (11734609_at) / RFU RASL12 (11751679_a_at) / Fold change /veh RASL12 (11751679_a_at) / RFU CDKN2B (11736163_a_at) / Fold change /veh CDKN2B (11736163_a_at) / RFU PRF1 (11729649_at) / Fold change /veh PRF1 (11729649_at) / RFU, ZNF638 /// ZNF638-IT1 / Fold change vs veh, ZNF638 /// ZNF638-IT1 / RFU, PANK3 / Fold change vs veh, PANK3 / RFU, SH3YL1 / Fold change vs veh, SH3YL1 / RFU, ZEB2 / Fold change vs veh, ZEB2 / RFU, NRIP1 / Fold change vs veh, NRIP1 / RFU, PTTG1IP / Fold change vs veh, PTTG1IP / RFU, CAPN2 / Fold change vs veh, CAPN2 / RFU, MED14 / Fold change vs veh, MED14 / RFU, SNORA58 / Fold change vs veh, SNORA58 / RFU, C1orf63 / Fold change vs veh, C1orf63 / RFU, LRRFIP1 / Fold change vs veh, LRRFIP1 / RFU, NDUFAF7 / Fold change vs veh, NDUFAF7 / RFU, SLC12A2 / Fold change vs veh, SLC12A2 / RFU, IBTK / Fold change vs veh, IBTK / RFU, ESF1 / Fold change vs veh, ESF1 / Fold change vs veh, TMEM50B / RFU, TAOK1 / Fold change vs veh, TAOK1 / RFU, ACBD3 / Fold change vs veh, ACBD3 / RFU, TMA16 / Fold change vs veh, TMA16 / RFU, RWDD3 / Fold change vs veh, RWDD3 / RFU, BCAT1 / Fold change vs veh, BCAT1 / RFU, EDEM3 / Fold change vs veh, EDEM3 / RFU, TMEM33 / Fold change vs veh, TMEM33 / RFU, WDR75 / Fold change vs veh, WDR75 / RFU, AHCTF1 / Fold change vs veh, AHCTF1 / RFU, TFRC / Fold change vs veh, TFRC / RFU, ZDHHC17 / Fold change vs veh, ZDHHC17 / RFU, NOM1 / Fold change vs veh, NOM1 / RFU, ARL8B / Fold change vs veh, ARL8B / RFU, ZBTB11 / Fold change vs veh, ZBTB11 / RFU, TAMM41 / Fold change vs veh, TAMM41 / RFU, KIAA1704 /// LOC100996395 / Fold change vs veh, KIAA1704 /// LOC100996395 / RFU, ING1 / Fold change vs veh, ING1 / RFU, TRMT61B / Fold change vs veh, TRMT61B / RFU, FUBP3 / Fold change vs veh, FUBP3 / RFU, TP53 / Fold change vs veh, TP53 / RFU, TNKS2 / Fold change vs veh, TNKS2 / RFU, ZFP14 / Fold change vs veh, ZFP14 / RFU, ACTR2 / Fold change vs veh, ACTR2 / RFU, PPP3R1 / Fold change vs veh, PPP3R1 / RFU, PIK3R1 / Fold change vs veh, PIK3R1 / RFU, HNRNPA1 / Fold change vs veh, HNRNPA1 / RFU, RNF170 / Fold change vs veh, RNF170 / RFU, ZNF28 / Fold change vs veh, ZNF28 / RFU, RNGTT / Fold change vs veh, RNGTT / RFU, OGT / Fold change vs veh, OGT / RFU, BRD1 / Fold change vs veh, BRD1 / RFU, MARS / Fold change vs veh, MARS / RFU, ZNF655 / Fold change vs veh, ZNF655 / RFU, FAHD1 / Fold change vs veh, FAHD1 / RFU, BDP1 / Fold change vs veh, BDP1 / RFU, LRRCC1 / Fold change vs veh, LRRCC1 / RFU, ARID1A / Fold change vs veh, ARID1A / RFU, ZNF146 / Fold change vs veh, ZNF146 / RFU, ZNF330 / Fold change vs veh, ZNF330 / RFU, GPN3 / Fold change vs veh, GPN3 / RFU, C9orf123 / Fold change vs veh, C9orf123 / RFU, N4BP2L2 / Fold change vs veh, N4BP2L2 / RFU, ARFIP1 / Fold change vs veh, ARFIP1 / RFU, FAM179B / Fold change vs veh, FAM179B / RFU, BCL10 / Fold change vs veh, BCL10 / RFU, UHRF1BP1L / Fold change vs veh, UHRF1BP1L / RFU, BET1 / Fold change vs veh, BET1 / RFU, CNOT2 / Fold change vs veh, CNOT2 / RFU, ZNF268 / Fold change vs veh, ZNF268 / Fold change vs veh, ZNF507 / RFU, DGCR2 / Fold change vs veh, DGCR2 / RFU, WDSUB1 / Fold change vs veh, WDSUB1 / Fold change vs veh, HSP90B1 /// MIR3652 / RFU, ADSS / Fold change vs veh, ADSS / RFU, GK / Fold change vs veh, GK / RFU, ZNF148 / Fold change vs veh, ZNF148 / RFU, TAF9 / Fold change vs veh, TAF9 / RFU, SLC1A5 / Fold change vs veh, SLC1A5 / RFU, SLMO2 / Fold change vs veh, SLMO2 / RFU, ABCC4 / Fold change vs veh, ABCC4 / RFU, LOC101060439 /// RAP1B / Fold change vs veh, LOC101060439 /// RAP1B / RFU, RFX7 / Fold change vs veh, RFX7 / RFU, GTPBP10 / Fold change vs veh, GTPBP10 / RFU, CNEP1R1 / Fold change vs veh, CNEP1R1 / RFU, BIVM-ERCC5 /// ERCC5 / Fold change vs veh, BIVM-ERCC5 /// ERCC5 / RFU, ILF3 / Fold change vs veh, ILF3 / RFU 11762660_at / Fold change /veh 11762660_at / RFU VCAN (11757783_s_at) / Fold change /veh VCAN (11757783_s_at) / RFU DDX43 (11728927_at) / Fold change /veh DDX43 (11728927_at) / RFU KRT8 (11758188_x_at) / Fold change /veh KRT8 (11758188_x_at) / RFU NKD1 (11759106_at) / Fold change /veh NKD1 (11759106_at) / RFU SRD5A1 (11742802_a_at) / Fold change /veh SRD5A1 (11742802_a_at) / RFU TPSAB1 /// TPSB2 (11721975_s_at) / Fold change /veh TPSAB1 /// TPSB2 (11721975_s_at) / RFU GSTM3 (11746129_a_at) / Fold change /veh GSTM3 (11746129_a_at) / RFU IL23R (11737362_x_at) / Fold change /veh IL23R (11737362_x_at) / RFU TMEM51 (11727254_a_at) / Fold change /veh TMEM51 (11727254_a_at) / RFU PIWIL2 (11732686_x_at) / Fold change /veh PIWIL2 (11732686_x_at) / RFU ORM1 (11744905_x_at) / Fold change /veh ORM1 (11744905_x_at) / RFU CCDC152 (11743942_at) / Fold change /veh CCDC152 (11743942_at) / RFU ECM1 (11717891_a_at) / Fold change /veh ECM1 (11717891_a_at) / RFU IL23R (11748794_a_at) / Fold change /veh IL23R (11748794_a_at) / RFU TNFAIP8L3 (11732012_x_at) / Fold change /veh TNFAIP8L3 (11732012_x_at) / RFU MBOAT4 (11741988_at) / Fold change /veh MBOAT4 (11741988_at) / RFU 11764193_at / Fold change /veh 11764193_at / RFU TMEM53 (11763286_at) / Fold change /veh TMEM53 (11763286_at) / RFU MAGEB2 (11727129_at) / Fold change /veh MAGEB2 (11727129_at) / RFU TMEM200A (11744735_a_at) / Fold change /veh TMEM200A (11744735_a_at) / RFU CCDC152 (11751479_a_at) / Fold change /veh CCDC152 (11751479_a_at) / RFU FAM211A (11726209_a_at) / Fold change /veh FAM211A (11726209_a_at) / RFU RGS16 (11746705_a_at) / Fold change /veh RGS16 (11746705_a_at) / RFU VCAN (11755009_s_at) / Fold change /veh VCAN (11755009_s_at) / RFU RHOB (11743442_s_at) / Fold change /veh RHOB (11743442_s_at) / RFU RGS16 (11720943_a_at) / Fold change /veh RGS16 (11720943_a_at) / RFU RGS16 (11720944_at) / Fold change /veh RGS16 (11720944_at) / RFU, VPS4B / Fold change vs veh, VPS4B / RFU, CREB1 / Fold change vs veh, CREB1 / RFU, DNAJC13 / Fold change vs veh, DNAJC13 / RFU, GNAQ / Fold change vs veh, GNAQ / RFU, CDK5R1 / Fold change vs veh, CDK5R1 / RFU, ZRANB3 / Fold change vs veh, ZRANB3 / RFU, CUL4A / Fold change vs veh, CUL4A / RFU, CCNY / Fold change vs veh, CCNY / RFU, UFL1 / Fold change vs veh, UFL1 / RFU, COG3 / Fold change vs veh, COG3 / RFU, DIAPH2 / Fold change vs veh, DIAPH2 / RFU, SKA2 / Fold change vs veh, SKA2 / RFU, AFF3 / Fold change vs veh, AFF3 / RFU, LMF1 / Fold change vs veh, LMF1 / RFU, IPO11 / Fold change vs veh, IPO11 / RFU, DFFB / Fold change vs veh, DFFB / RFU, FOXP1 / Fold change vs veh, FOXP1 / RFU, CARD8 / Fold change vs veh, CARD8 / RFU, STRN3 / Fold change vs veh, STRN3 / RFU, ADK / Fold change vs veh, ADK / RFU, RASSF2 / Fold change vs veh, RASSF2 / RFU, WIPF1 / Fold change vs veh, WIPF1 / RFU, LARP1B / Fold change vs veh, LARP1B / RFU, RASA1 / Fold change vs veh, RASA1 / RFU, RB1 / Fold change vs veh, RB1 / RFU, PPFIA1 / Fold change vs veh, PPFIA1 / RFU, MAT2A / Fold change vs veh, MAT2A / RFU, CCT5 / Fold change vs veh, CCT5 / RFU, WDR92 / Fold change vs veh, WDR92 / RFU, CUX1 / Fold change vs veh, CUX1 / RFU, TTC7A / Fold change vs veh, TTC7A / RFU, TMEM135 / Fold change vs veh, TMEM135 / RFU, DEPTOR / Fold change vs veh, DEPTOR / RFU, CPM / Fold change vs veh, CPM / RFU, DNAJB6 / Fold change vs veh, DNAJB6 / RFU, CACNA2D3 / Fold change vs veh, CACNA2D3 / RFU, DTX4 / Fold change vs veh, DTX4 / RFU, TFCP2 / Fold change vs veh, TFCP2 / RFU, GMCL1 /// GMCL1P1 / Fold change vs veh, GMCL1 /// GMCL1P1 / RFU, AEBP2 / Fold change vs veh, AEBP2 / RFU, SNHG1 /// SNORD22 /// SNORD25 /// SNORD26 /// SNORD27 /// SNORD28 /// SNORD29 /// SNORD31 / Fold change vs veh, SNHG1 /// SNORD22 /// SNORD25 /// SNORD26 /// SNORD27 /// SNORD28 /// SNORD29 /// SNORD31 / Fold change (Aza/veh), C12orf56 (ProbeSet 11735607_a_at) / Fold change (ACY-1035/veh), C12orf56 (ProbeSet 11735607_a_at) / Fold change (Aza/veh), FGFR1OP (ProbeSet 11751329_s_at) / Fold change (ACY-1035/veh), FGFR1OP (ProbeSet 11751329_s_at) / Fold change (Aza/veh), VPS36 (ProbeSet 11739960_a_at) / Fold change (ACY-1035/veh), VPS36 (ProbeSet 11739960_a_at) / RFU SYPL1 (11715823_x_at) / Fold change /veh SYPL1 (11715823_x_at) / RFU IGFBP7 (11715501_s_at) / Fold change /veh IGFBP7 (11715501_s_at) / RFU REEP3 (11722064_at) / Fold change /veh REEP3 (11722064_at) / RFU IGLL1 (11728026_x_at) / Fold change /veh IGLL1 (11728026_x_at): dose or concentration left out as unconfirmed
Conditions: MV-4-11 cells, 48 hours

Nc1ncn([C@@H]2O[C@H](CO)[C@@H](O)[C@H]2O)c(=O)n1 [azacitidine]
RFU C1QL1 (11718748_at): 641.97 RFU

— PMC5218480 (PLoS ONE, 2017)
